“And” between values parts separate entries of the source, which are not always exact repeats. Identical values can stand only once. Toxic doses and inconclusive results are not listed.

Consider 24 molecules from PubChem BioAssay AID248 (DTP/NCI, 2004).

For this assay, the system named is L1210 leukemia ip in BDF1 mice, survival T/C. In words: NCI In Vivo Anticancer Drug Screen. Data for tumor model L1210 Leukemia (intraperitoneal) in B6D2F1 (BDF1) mice. The conditions noted are these: endpoint: mean survival time, higher = longer survival. In a few lines: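 Transplanted-tumor mice were given test agent; controls received vehicle only. Survival readings from the two groups were divided (treated over control).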

The mark [1] stands for this setting: dose: 100.0 mg/kg/injection, schedule: Q04DX003 (ip), vehicle: Klucel (hydroxypropylcellulose) (HPC).
Setting [2] is: dose: 200.0 mg/kg/injection, schedule: Q04DX003 (ip), vehicle: Klucel (hydroxypropylcellulose) (HPC).
The mark [3] stands for this setting: dose: 100.0 mg/kg/injection, schedule: Q04DX003 (ip), vehicle: saline with Tween-80.
The mark [4] stands for this setting: dose: 200.0 mg/kg/injection, schedule: Q04DX003 (ip), vehicle: saline with Tween-80.
[5] abbreviates: dose: 100.0 mg/kg/injection, schedule: Q04DX002 (ip), vehicle: Klucel (hydroxypropylcellulose) (HPC).
[6] abbreviates: dose: 400.0 mg/kg/injection, schedule: Q04DX002 (ip), vehicle: Klucel (hydroxypropylcellulose) (HPC).
[7] abbreviates: dose: 100.0 mg/kg/injection, schedule: Q04DX003 (ip), vehicle: saline.
Setting [8] is: dose: 200.0 mg/kg/injection, schedule: Q04DX003 (ip), vehicle: saline.
The mark [9] stands for this setting: dose: 400.0 mg/kg/injection, schedule: Q04DX003 (ip), vehicle: saline.
Where [10] appears, read: dose: 200.0 mg/kg/injection, schedule: Q04DX002 (ip), vehicle: Klucel (hydroxypropylcellulose) (HPC).
Setting [11] is: dose: 50.0 mg/kg/injection, schedule: Q01DX009 (ip), vehicle: saline with Tween-80.
The mark [12] stands for this setting: dose: 100.0 mg/kg/injection, schedule: Q01DX009 (ip), vehicle: saline with Tween-80.
The mark [13] stands for this setting: dose: 100.0 mg/kg/injection, schedule: Q04DX002 (ip), vehicle: saline with Tween-80.
[14] abbreviates: dose: 200.0 mg/kg/injection, schedule: Q04DX002 (ip), vehicle: saline with Tween-80.
[15] abbreviates: dose: 12.5 mg/kg/injection, schedule: Q01DX009 (ip), vehicle: saline with Tween-80.
Where [16] appears, read: dose: 100.0 mg/kg/injection, schedule: Q01DX001 (ip), vehicle: Klucel (hydroxypropylcellulose) (HPC).
Where [17] appears, read: dose: 200.0 mg/kg/injection, schedule: Q01DX001 (ip), vehicle: Klucel (hydroxypropylcellulose) (HPC).
The mark [18] stands for this setting: dose: 400.0 mg/kg/injection, schedule: Q01DX001 (ip), vehicle: Klucel (hydroxypropylcellulose) (HPC).

Regarding `OCC(O)C(O)C(O)C(O)C(c1ccc(Cl)cc1)c1ccc(Cl)cc1` (stereo not drawn), the T/C is 101 % of control and 98 % of control (dose: 50.0 mg/kg/injection, schedule: Q01DX001 (ip), vehicle: saline); 101 % of control and 93 % of control and 88 % of control (dose: 100.0 mg/kg/injection, schedule: Q01DX001 (ip), vehicle: saline); 95 % of control and 91 % of control (dose: 200.0 mg/kg/injection, schedule: Q01DX001 (ip), vehicle: saline); 95 % of control and 96 % of control (dose: 400.0 mg/kg/injection, schedule: Q01DX001 (ip), vehicle: saline).

Take `CCOC(=O)c1cnc(SC)nc1C(=O)OCC`: the T/C (dose: 50.0 mg/kg/injection, schedule: Q04DX003 (ip), vehicle: Klucel (hydroxypropylcellulose) (HPC)) is 102 % of control; the T/C under setting [1] was 94 % of control; the T/C under setting [2] is 102 % of control.

For the molecule `O=C1C=CC(=O)N1CO` (tested in a mixture with another compound), the T/C runs as follows: under setting [3], 97 % of control; under setting [4], 92 % of control; (dose: 400.0 mg/kg/injection, schedule: Q04DX003 (ip), vehicle: saline with Tween-80) 91 % of control.

On to `CC1(c2ccc3ccccc3c2)OCC2(CCC2)CO1`, for which the T/C is, setting by setting: under setting [5], 97 % of control; under setting [6], 107 % of control.

Turning to `CCOC(=O)C1CCC1C(=O)OCC` (stereo not drawn), the T/C is, setting by setting: (dose: 50.0 mg/kg/injection, schedule: Q01DX009 (ip), vehicle: saline) 95 % of control; (dose: 100.0 mg/kg/injection, schedule: Q01DX009 (ip), vehicle: saline) 95 % of control; under setting [7], 96 % of control; (dose: 200.0 mg/kg/injection, schedule: Q01DX009 (ip), vehicle: saline) 94 % of control; under setting [8], 102 % of control; under setting [9], 102 % of control.

In the case of `COc1ccc(OC)c(NC(=O)Nc2ccc(I)cc2)c1`, the T/C reads like this: under setting [5], 96 % of control; under setting [10], 96 % of control; under setting [6], 107 % of control.

For `CCCCCC[n+]1ccc(C#N)cc1`, the T/C (dose: 75.0 mg/kg/injection, schedule: Q01DX001 (ip), vehicle: saline) is 101 % of control.

For the molecule `O=[N+]([O-])c1ccccc1N=Nc1c(O)[nH]c2ccc(F)cc12`, the T/C runs as follows: (dose: 75.0 mg/kg/injection, schedule: Q01DX001 (ip), vehicle: acetone) 96 % of control; (dose: 150.0 mg/kg/injection, schedule: Q01DX001 (ip), vehicle: acetone) 96 % of control; (dose: 300.0 mg/kg/injection, schedule: Q01DX001 (ip), vehicle: acetone) 103 % of control.

In the case of `CCOC(=O)C(C)CC(=O)c1ccccc1` (stereo not drawn), the T/C by setting is: under setting [11], 106 % of control; under setting [12], 107 % of control; under setting [13], 95 % of control; under setting [14], 95 % of control.

On to `O=P1(O)[O][Sn]([c]2ccccc2)([c]2ccccc2)[O]1`, for which the T/C (dose: 6.25 mg/kg/injection, schedule: Q01DX009 (ip), vehicle: saline with Tween-80) is 97 % of control and the T/C under setting [15] is 97 % of control.

For `ClC(Cl)C(Cl)(Cl)C(Cl)(Cl)Cl`, the T/C is 96 % of control (dose: 50.0 mg/kg/injection, schedule: Q01DX009 (ip), vehicle: Klucel (hydroxypropylcellulose) (HPC)); 94 % of control (dose: 100.0 mg/kg/injection, schedule: Q01DX009 (ip), vehicle: Klucel (hydroxypropylcellulose) (HPC)); 95 % of control under setting [1]; 98 % of control (dose: 200.0 mg/kg/injection, schedule: Q01DX009 (ip), vehicle: Klucel (hydroxypropylcellulose) (HPC)); 108 % of control under setting [2].

Regarding `CC(=O)OCCSCCc1ccccc1`, the T/C reads like this: (dose: 62.5 mg/kg/injection, schedule: Q01DX009 (ip), vehicle: saline with Tween-80) 97 % of control; (dose: 125.0 mg/kg/injection, schedule: Q01DX009 (ip), vehicle: saline with Tween-80) 113 % of control; (dose: 250.0 mg/kg/injection, schedule: Q01DX009 (ip), vehicle: saline with Tween-80) 94 % of control.

`Cc1ccc(C(=O)/C=C/c2ccco2)c(C)c1`: the T/C by setting is: under setting [5], 99 % of control; under setting [10], 86 % of control; under setting [6], 99 % of control.

In the case of `Cn1cnc([N+](=O)[O-])c1[Se]c1nc(N)nc2c1ncn2C1CC(O)C(CO)O1` (stereo not drawn), the T/C is, setting by setting: (dose: 16.5 mg/kg/injection, schedule: Q01DX005 (ip), vehicle: saline) 159 % of control; (dose: 25.0 mg/kg/injection, schedule: Q01DX005 (ip), vehicle: saline) 202 % of control; (dose: 25.0 mg/kg/injection, schedule: Q01DX009 (ip), vehicle: saline) 150 % of control; (dose: 37.5 mg/kg/injection, schedule: Q01DX005 (ip), vehicle: saline) 219 % of control; (dose: 37.5 mg/kg/injection, schedule: Q01DX009 (ip), vehicle: saline) 158 % of control; (dose: 50.0 mg/kg/injection, schedule: Q01DX005 (ip), vehicle: saline) 98 % of control. The T/C is, setting by setting: (dose: 62.5 mg/kg/injection, schedule: Q01DX005 (ip), vehicle: saline) 117 % of control; (dose: 62.5 mg/kg/injection, schedule: Q01DX009 (ip), vehicle: saline) 105 % of control.

`COc1cccc(/C=C/C(=O)C2CCCCC2)c1`: the T/C by setting is: under setting [11], 101 % of control; under setting [12], 97 % of control; (dose: 200.0 mg/kg/injection, schedule: Q01DX009 (ip), vehicle: saline with Tween-80) 101 % of control.

Consider `COC(=O)C(CCl)NC(=O)NCCCl` (stereo not drawn), for which the T/C reads like this: under setting [16], 96 % of control; under setting [17], 96 % of control; under setting [18], 96 % of control.

In the case of `CCCCCCCCCCCCCCCC(=O)Nc1ccc(C(=O)O)cc1`, the T/C under setting [1] is 95 % of control; the T/C under setting [2] was 94 % of control; the T/C (dose: 400.0 mg/kg/injection, schedule: Q04DX003 (ip), vehicle: Klucel (hydroxypropylcellulose) (HPC)) is 94 % of control.

In the case of `O=C(CCCO)NCCS(=O)c1ccccc1` (stereo not drawn), the T/C under setting [13] was 107 % of control; the T/C under setting [14] was 101 % of control; the T/C (dose: 400.0 mg/kg/injection, schedule: Q04DX002 (ip), vehicle: saline with Tween-80) was 111 % of control.

Turning to `CC(=O)CC(=O)NCCNC(=O)CC(C)=O`, the T/C under setting [7] is 101 % of control, the T/C under setting [8] is 100 % of control and the T/C under setting [9] was 100 % of control.

For `O=C(Nc1ccccc1C(F)(F)F)c1cccc(C(=O)Nc2ccccc2C(F)(F)F)c1`, the T/C was 86 % of control under setting [12]; 87 % of control under setting [3]; 88 % of control (dose: 400.0 mg/kg/injection, schedule: Q01DX009 (ip), vehicle: saline with Tween-80).

For the molecule `O=C1C=CC(=O)N1CN1CCOCC1` (tested in a mixture with another compound), the T/C is 92 % of control (dose: 6.25 mg/kg/injection, schedule: Q01DX009 (ip), vehicle: saline); 100 % of control (dose: 12.5 mg/kg/injection, schedule: Q01DX009 (ip), vehicle: saline); 103 % of control and 100 % of control under setting [16]; 103 % of control and 100 % of control and 97 % of control under setting [17]; 95 % of control [middle of 4 runs] under setting [18].

For `COCC(C)CNC(=S)Nc1ccccc1` (stereo not drawn), the T/C is, setting by setting: (dose: 50.0 mg/kg/injection, schedule: Q01DX001 (ip), vehicle: carboxymethylcellulose (CMC)) 108 % of control; (dose: 100.0 mg/kg/injection, schedule: Q01DX001 (ip), vehicle: carboxymethylcellulose (CMC)) 103 % of control; (dose: 200.0 mg/kg/injection, schedule: Q01DX001 (ip), vehicle: carboxymethylcellulose (CMC)) 103 % of control; (dose: 400.0 mg/kg/injection, schedule: Q01DX001 (ip), vehicle: carboxymethylcellulose (CMC)) 105 % of control.

Consider `C1=CCOCOC1`, for which the T/C is, setting by setting: under setting [15], 97 % of control; (dose: 25.0 mg/kg/injection, schedule: Q01DX009 (ip), vehicle: saline with Tween-80) 94 % of control; under setting [11], 97 % of control; under setting [12], 113 % of control.

With `OC12CC(C(F)(F)F)(C(F)(F)F)OC1(O)CC(C(F)(F)F)(C(F)(F)F)O2` (stereo not drawn), the T/C was 94 % of control under setting [3] and 89 % of control under setting [4].
